Data taken from patent US20260234136A1, “ISOXAZOLIDINES AS RIPK1 INHIBITORS AND USE THEREOF” (GENZYME CORPORATION, priority 2023, published 2026).
Values after ≈ are worked out from the molar mass of the structure shown.

Assays:
U937 cells = test: Cellular assay in U937 cells to measure the activity of RIPK1-inhibitors on cell death (necroptosis); format: cell-based; settings: Homo sapiens, U-937, 50 μM zVAD.fmk and 100 ng/ml recombinant human TNFα, overnight (18 to 24 hrs), MTS readout
Protocol: Absorbance of formazan was read at 490 nm. The inhibitory activity of the test compound was quantified in a concentration response curve (CRC) experiment.
Compounds were obtained as 10 mM stock solutions and were diluted 1 to 10 volumes with DMSO to yield a 1 mM solution. From this solution 2 μl were diluted with 998 μl growth medium.
U937 cells were cultured in RPMI1640 Glutamax and 10% heat inactivated FBS. […] 50 μl of compound dilutions, as described in Cellular assay in U937 cells, were added and the cell suspension incubated overnight (18 to 24 hrs) at 37° C., 5% CO2 in a humidified atmosphere (95% rH).
CellTiter 96 Aqueous reagent was mixed (100 μl PMS (phenazine methosulfate) solution/2 ml MTS (3-(4,5-[…])-5-(3-carboxymethoxyphenyl)-2-(4-sulfophenyl)-2H-tetrazolium, inner salt) solution) and 20 μl were added per well. After 4 hrs incubation at 37° C. (5% CO2 95% rH) optical density was measured at 490 nm on a microplate reader (Tecan Infinite M1000).
The % inhibition is expressed as percentage of the maximal inhibition value obtained in the absence of TNFα/zVAD.fmc.

physchem = settings: 50 mM phosphate buffer, 25 °C, pH 7.4, aqueous buffer, thermodynamic from solid

`Cc1ccc([C@@H]2CCON2C(=O)C2CCN(c3cc(-n4ccnc4C)ncn3)CC23CC3)cn1` (mixture of isomers) [Example 33, [5-[6-(2-methylimidazol-1-yl)pyrimidin-4-yl]-5-azaspiro[2.5]octan-8-yl]-[(3S)-3-(6-methylpyridin-3-yl)-1,2-oxazolidin-2-yl]methanone] gave an IC50 (U937 cells) of 0.0164 µM and a solubility at 16 h (physchem) greater than 1090 µM.
Work on `Cc1ccc([C@@H]2CCON2C(=O)C2CCN(c3cc(-c4ccnn4C)ncn3)CC23CC3)cn1` (mixture of isomers) [Example 34, [5-[6-(2-methylpyrazol-3-yl)pyrimidin-4-yl]-5-azaspiro[2.5]octan-8-yl]-[(3S)-3-(6-methylpyridin-3-yl)-1,2-oxazolidin-2-yl]methanone] yielded an IC50 (U937 cells) of 0.0529 µM and a solubility at 16 h (physchem) greater than 1090 µM.
Work on `Cc1ccc([C@@H]2CCON2C(=O)[C@@H]2CCN(c3cc(-n4ccnc4C)ncn3)CC23CC3)cn1` (single isomer, unassigned) [Example 78] yielded an IC50 (U937 cells) of 0.032 µM and a solubility at 16 h (physchem) greater than 1090 µM.
Compound `Cc1ccc([C@@H]2CCON2C(=O)[C@H]2CCN(c3cc(-n4ccnc4C)ncn3)CC23CC3)cn1` (single isomer, unassigned) [Example 79] has a solubility at 16 h (physchem) greater than 1090 µM.
`O=C1OCCN1c1ccnc(N2CCC(C(=O)N3OCC[C@H]3c3cnccn3)CC2)n1` [Example 2, (S)-3-(2-(4-(3-(pyrazin-2-yl)isoxazolidine-2-carbonyl)piperidin-1-yl)pyrimidin-4-yl)oxazolidin-2-one] showed an IC50 (U937 cells) of 0.05 µM and a solubility at 16 h (physchem) greater than 1180 µM.
`O=C1CCCN1c1nc(N2CCC(C(=O)N3OCC[C@H]3c3cnccn3)CC2)ncc1F` [Example 6, 1-[5-fluoro-2-[4-[(3S)-3-pyrazin-2-ylisoxazolidine-2-carbonyl]-1-piperidyl]pyrimidin-4-yl]pyrrolidin-2-one] gave an IC50 (U937 cells) of 0.008 µM and a solubility at 16 h (physchem) greater than 1130 µM.
Work on `Cc1ccc([C@@H]2CCON2C(=O)C2CCN(c3ncnc(-c4ccnn4C)n3)CC2)cn1` [Example 8] yielded an IC50 (U937 cells) of 0.003 µM and a solubility at 16 h (physchem) of 328 µM (≈ 142 µg/mL).
In the case of `Cc1cnn(-c2ccnc(N3CCC(C(=O)N4OCC[C@H]4c4ccc(C)nc4)CC3)n2)c1` [Example 9, [1-[4-(4-methylpyrazol-1-yl)pyrimidin-2-yl]-4-piperidyl]-[(3S)-3-(6-methyl-3-pyridyl)isoxazolidin-2-yl]methanone], the IC50 (U937 cells) is reported as 0.029 µM and the solubility at 16 h (physchem) is reported as 173 µM (≈ 74.9 µg/mL).
`O=C(C1CCN(c2nccc(-c3ncco3)n2)CC1)N1OCC[C@H]1c1cnccn1` [Example 11, [1-(4-oxazol-2-ylpyrimidin-2-yl)-4-piperidyl]-[(3S)-3-pyrazin-2-ylisoxazolidin-2-yl]methanone] showed an IC50 (U937 cells) of 0.01 µM and a solubility at 16 h (physchem) greater than 2780 µM.
`O=C(C1CCN(c2ncc(F)c(-c3ncco3)n2)CC1)N1OCC[C@H]1c1cnccn1` [Example 12, [1-(5-fluoro-4-oxazol-2-yl-pyrimidin-2-yl)-4-piperidyl]-[(3S)-3-pyrazin-2-ylisoxazolidin-2-yl]methanone] gave an IC50 (U937 cells) of 0.001 µM and a solubility at 16 h (physchem) greater than 1180 µM.
`O=C(C1CCN(c2ncnc(-c3nccs3)n2)CC1)N1OCC[C@H]1c1cnccn1` [Example 14, [(3S)-3-pyrazin-2-ylisoxazolidin-2-yl]-[1-(4-thiazol-2-yl-1,3,5-triazin-2-yl)-4-piperidyl]methanone] showed an IC50 (U937 cells) of 0.009 µM and a solubility at 16 h (physchem) greater than 1180 µM.
`Cc1cnn(-c2nccc(N3CCC(C(=O)N4OCC[C@H]4c4ccc(C)nc4)CC3)n2)c1` [Example 16, [1-[2-(4-methylpyrazol-1-yl)pyrimidin-4-yl]-4-piperidyl]-[(3S)-3-(6-methyl-3-pyridyl)isoxazolidin-2-yl]methanone] gave an IC50 (U937 cells) of 0.053 µM and a solubility at 16 h (physchem) of 169 µM (≈ 73.2 µg/mL).
With `Cc1ccc([C@@H]2CCON2C(=O)C2CCN(c3ncc(F)c(-c4ccnn4C)n3)CC2)cn1` [Example 19, [1-[5-fluoro-4-(2-methylpyrazol-3-yl)pyrimidin-2-yl]-4-piperidyl]-[(3S)-3-(6-methyl-3-pyridyl)isoxazolidin-2-yl]methanone] the solubility at 16 h (physchem) was 7.1 µM (≈ 3.21 µg/mL).
`Cc1ncc([C@@H]2CCON2C(=O)C2CCN(c3nccc(-n4ccnc4C)n3)CC2)cc1F` [Example 20, [(3S)-3-(5-fluoro-6-methyl-3-pyridyl)isoxazolidin-2-yl]-[1-[4-(2-methylimidazol-1-yl)pyrimidin-2-yl]-4-piperidyl]methanone] showed an IC50 (U937 cells) of 0.001 µM and a solubility at 16 h (physchem) of 21.4 µM (≈ 9.66 µg/mL).
In the case of `Cc1ncc([C@@H]2CCON2C(=O)C2CCN(c3cc(-n4ccnc4C)ncn3)CC2)cc1F` [Example 21, [(3S)-3-(5-fluoro-6-methyl-3-pyridyl)isoxazolidin-2-yl]-[1-[6-(2-methylimidazol-1-yl)pyrimidin-4-yl]-4-piperidyl]methanone], the IC50 (U937 cells) is reported as 0.073 µM and the solubility at 16 h (physchem) is reported as greater than 1110 µM.
In the case of `Cc1ncc([C@@H]2CCON2C(=O)C2CCN(c3ncc(F)c(N4CCC5(CC5)C4=O)n3)CC2)cc1F` [Example 68, 5-[5-fluoro-2-[4-[(3S)-3-(5-fluoro-6-methylpyridin-3-yl)-1,2-oxazolidine-2-carbonyl]piperidin-1-yl]pyrimidin-4-yl]-5-azaspiro[2.4]heptan-4-one], the IC50 (U937 cells) is reported as 10 µM.
In the case of `Cc1ccc([C@@H]2CCON2C(=O)C2CCN(c3nccc(N4CCC5(CC5)C4=O)n3)CC2)cn1` [Example 70, 5-[2-[4-[(3S)-3-(6-methylpyridin-3-yl)-1,2-oxazolidine-2-carbonyl]piperidin-1-yl]pyrimidin-4-yl]-5-azaspiro[2.4]heptan-4-one], the IC50 (U937 cells) is reported as 0.107 µM.
In the case of `O=C(C1CCN(c2nccc(N3CCCC4(CC4)C3=O)n2)CC1)N1OCC[C@H]1c1cncc(F)c1` [Example 72, 5-[2-[4-[(3S)-3-(5-fluoropyridin-3-yl)-1,2-oxazolidine-2-carbonyl]piperidin-1-yl]pyrimidin-4-yl]-5-azaspiro[2.5]octan-4-one], the IC50 (U937 cells) is reported as 0.058 µM.
For `Cc1ccc([C@@H]2CCON2C(=O)C2CCN(c3nccc(N4CCC(F)(F)C4=O)n3)CC2)cn1` [Example 73, 3,3-difluoro-1-[2-[4-[(3S)-3-(6-methylpyridin-3-yl)-1,2-oxazolidine-2-carbonyl]piperidin-1-yl]pyrimidin-4-yl]pyrrolidin-2-one], the IC50 (U937 cells) was 0.551 µM.
With `Cc1cncc([C@@H]2CCON2C(=O)C2CCN(c3nccc(N4CCC(F)(F)C4=O)n3)CC2)c1` [Example 74, 3,3-difluoro-1-[2-[4-[(3S)-3-(5-methylpyridin-3-yl)-1,2-oxazolidine-2-carbonyl]piperidin-1-yl]pyrimidin-4-yl]pyrrolidin-2-one] the IC50 (U937 cells) was 0.175 µM.
`Cc1cncc([C@@H]2CCON2C(=O)C2CCN(c3nccc(N4CCCC(F)(F)C4=O)n3)CC2)c1` [Example 76, 3,3-difluoro-1-[2-[4-[(3S)-3-(5-methylpyridin-3-yl)-1,2-oxazolidine-2-carbonyl]piperidin-1-yl]pyrimidin-4-yl]piperidin-2-one] showed an IC50 (U937 cells) of 0.485 µM.
`Cc1ccc([C@@H]2CCON2C(=O)[C@H]2CCN(c3cc(-c4ccnn4C)ncn3)CC23CC3)cn1` [Example 80, [5-[6-(2-methylpyrazol-3-yl)pyrimidin-4-yl]-5-azaspiro[2.5]octan-8-yl]-[(3S)-3-(6-methylpyridin-3-yl)-1,2-oxazolidin-2-yl]methanone] gave a solubility at 16 h (physchem) greater than 1090 µM.
`Cc1ccc([C@@H]2CCON2C(=O)[C@@H]2CCN(c3ccnc(N4CCCC4=O)n3)CC23CC3)cn1` [Example 85, 1-[4-[(8R)-8-[(3S)-3-(6-methylpyridin-3-yl)-1,2-oxazolidine-2-carbonyl]-5-azaspiro[2.5]octan-5-yl]pyrimidin-2-yl]pyrrolidin-2-one] gave an IC50 (U937 cells) of 0.517 µM.
With `O=C1CCCN1c1cc(N2CCC(C(=O)N3OCC[C@H]3c3cncc(F)c3)CC2)ncn1` [Example 86, 1-[6-[4-[(3S)-3-(5-fluoropyridin-3-yl)-1,2-oxazolidine-2-carbonyl]piperidin-1-yl]pyrimidin-4-yl]pyrrolidin-2-one] the IC50 (U937 cells) was 0.78 µM.
For `Cc1ccc([C@@H]2CCON2C(=O)C2CCN(c3ccnc(N4CCCC4=O)n3)CC2)cn1` [Example 87, 1-[4-[4-[(3S)-3-(6-methylpyridin-3-yl)-1,2-oxazolidine-2-carbonyl]piperidin-1-yl]pyrimidin-2-yl]pyrrolidin-2-one], the IC50 (U937 cells) was greater than 10 µM.
`Cc1ncc([C@@H]2CCON2C(=O)C2CCN(c3nccc(N4C(=O)CCC4(C)C)n3)CC2)cc1F` [Example 89, 1-[2-[4-[(3S)-3-(5-fluoro-6-methylpyridin-3-yl)-1,2-oxazolidine-2-carbonyl]piperidin-1-yl]pyrimidin-4-yl]-5,5-dimethylpyrrolidin-2-one] gave an IC50 (U937 cells) of 0.32 µM.
`Cc1ccc([C@@H]2CCON2C(=O)C2CCN(c3ccnc(N4CCCC5(CC5)C4=O)n3)CC2)cn1` [Example 90, 5-[4-[4-[(3S)-3-(6-methylpyridin-3-yl)-1,2-oxazolidine-2-carbonyl]piperidin-1-yl]pyrimidin-2-yl]-5-azaspiro[2.5]octan-4-one] showed an IC50 (U937 cells) of 4.43 µM.
With `Cc1nc([C@@H]2CCON2C(=O)C2CCN(c3nccc(N4CCCC4=O)n3)CC2)cs1` [Example 92, 1-[2-[4-[(3S)-3-(2-methyl-1,3-thiazol-4-yl)-1,2-oxazolidine-2-carbonyl]piperidin-1-yl]pyrimidin-4-yl]pyrrolidin-2-one] the IC50 (U937 cells) was 0.018 µM.
Work on `Cc1ncc([C@@H]2CCON2C(=O)C2CCN(c3nccc(C4COC4)n3)CC2)cc1F` [Example 101, [(3S)-3-(5-fluoro-6-methylpyridin-3-yl)-1,2-oxazolidin-2-yl]-[1-[4-(oxetan-3-yl)pyrimidin-2-yl]piperidin-4-yl]methanone] yielded an IC50 (U937 cells) of 2.6 µM.
